Test results from PubChem BioAssay AID2060494 (Molecular Pharmacology Branch, DTP, NCI, 2025).

System: 435261-313-R-J1-PDC complex spheroid viability
Assay: Anticancer human tumor 435261-313-R-J1-PDC patient-derived colon adenocarcinoma cell line growth inhibition [GQUAD]
Conditions: for IC50: curve of first compound; for viability, T/C: stronger effect = lower value
Procedure, shortened: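 Multi-cell-type spheroids of tumor cells with HUVEC and mesenchymal stem cells, treated with drug combinations. Concentrations descend in half-log steps from near clinical Cmax, or from 10 microM where Cmax is unknown; viability read-out.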

[1] = second compound 0.0316 µM, first compound 0.0316 µM
[2] = second compound 0.0316 µM, first compound 0.1 µM
[3] = second compound 0.0316 µM, first compound 0.316 µM
[4] = second compound 0.0316 µM, first compound 1 µM
[5] = second compound 0.0316 µM, first compound 3.16 µM
[6] = second compound 0.0316 µM, first compound 10 µM
[7] = second compound 0.1 µM, first compound 0.0316 µM
[8] = second compound 0.1 µM, first compound 0.1 µM
[9] = second compound 0.1 µM, first compound 0.316 µM
[10] = second compound 0.1 µM, first compound 1 µM
[11] = second compound 0.1 µM, first compound 3.16 µM
[12] = second compound 0.1 µM, first compound 10 µM
[13] = second compound 0.316 µM, first compound 0.0316 µM
[14] = second compound 0.316 µM, first compound 0.1 µM
[15] = second compound 0.316 µM, first compound 0.316 µM
[16] = second compound 0.316 µM, first compound 1 µM
[17] = second compound 0.316 µM, first compound 3.16 µM
[18] = second compound 0.316 µM, first compound 10 µM
[19] = second compound 1 µM, first compound 0.0316 µM
[20] = second compound 1 µM, first compound 0.1 µM
[21] = second compound 1 µM, first compound 0.316 µM
[22] = second compound 1 µM, first compound 1 µM
[23] = second compound 1 µM, first compound 3.16 µM
[24] = second compound 1 µM, first compound 10 µM
[25] = second compound 3.16 µM, first compound 0.0316 µM
[26] = second compound 3.16 µM, first compound 0.1 µM
[27] = second compound 3.16 µM, first compound 0.316 µM
[28] = second compound 3.16 µM, first compound 1 µM
[29] = second compound 3.16 µM, first compound 3.16 µM
[30] = second compound 3.16 µM, first compound 10 µM
[31] = second compound 10 µM, first compound 0.0316 µM
[32] = second compound 10 µM, first compound 0.1 µM
[33] = second compound 10 µM, first compound 0.316 µM
[34] = second compound 10 µM, first compound 1 µM
[35] = second compound 10 µM, first compound 3.16 µM
[36] = second compound 10 µM, first compound 10 µM
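Further: spheroids exposed to the agents for seven days before readout.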
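Wherever viability, T/C is given: percent of vehicle control viability with DMSO wells as 100%.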

## Cc1cccc(N(C)C(=O)C2C(O)CCN2c2nc(C)cc(C(F)(F)F)c2C#N)c1 (stereo unspecified) + Cc1[nH]c2ccc(F)cc2c1-c1nc2c3cccnc3c3ncccc3c2[nH]1
Second compound 0.0316 µM
  IC50: > 10 µM
Second compound 0.1 µM
  IC50: > 10 µM
Second compound 0.316 µM
  IC50: > 10 µM
Second compound 1 µM
  IC50: > 10 µM
Second compound 3.16 µM
  IC50: < 0.0316 µM
Second compound 10 µM
  IC50: < 0.0316 µM
[1]
  viability, T/C: 123%
[2]
  viability, T/C: 111%
[3]
  viability, T/C: 121%
[4]
  viability, T/C: 91.4%
[5]
  viability, T/C: 97.2%
[6]
  viability, T/C: 92.3%
[7]
  viability, T/C: 106%
[8]
  viability, T/C: 141%
[9]
  viability, T/C: 138%
[10]
  viability, T/C: 135%
[11]
  viability, T/C: 117%
[12]
  viability, T/C: 113%
[13]
  viability, T/C: 76.1%
[14]
  viability, T/C: 105%
[15]
  viability, T/C: 104%
[16]
  viability, T/C: 104%
[17]
  viability, T/C: 117%
[18]
  viability, T/C: 115%
[19]
  viability, T/C: 95.2%
[20]
  viability, T/C: 86.7%
[21]
  viability, T/C: 152%
[22]
  viability, T/C: 129%
[23]
  viability, T/C: 117%
[24]
  viability, T/C: 59%
[25]
  viability, T/C: 30.2%
[26]
  viability, T/C: 41.4%
[27]
  viability, T/C: 38.5%
[28]
  viability, T/C: 44.9%
[29]
  viability, T/C: 47.7%
[30]
  viability, T/C: 42.9%
[31]
  viability, T/C: 27.1%
[32]
  viability, T/C: 27.7%
[33]
  viability, T/C: 33.7%
[34]
  viability, T/C: 27.1%
[35]
  viability, T/C: 28.7%
[36]
  viability, T/C: 23.5%

## COc1ccc([C@@H](O)c2cc(-c3ncnc4cc(N5CCOCC5)ccc34)c(F)cc2Cl)nn1 + Cc1[nH]c2ccc(F)cc2c1-c1nc2c3cccnc3c3ncccc3c2[nH]1
Second compound 0.0316 µM
  IC50: 1.08 µM
Second compound 0.1 µM
  IC50: 4.22 µM
Second compound 0.316 µM
  IC50: 3.42 µM
Second compound 1 µM
  IC50: 2.81 µM
Second compound 3.16 µM
  IC50: < 0.0316 µM
Second compound 10 µM
  IC50: < 0.0316 µM
[1]
  viability, T/C: 88.7%
[2]
  viability, T/C: 64.5%
[3]
  viability, T/C: 88.6%
[4]
  viability, T/C: 50.8%
[5]
  viability, T/C: 44.5%
[6]
  viability, T/C: 30.4%
[7]
  viability, T/C: 99%
[8]
  viability, T/C: 97.6%
[9]
  viability, T/C: 106%
[10]
  viability, T/C: 70.2%
[11]
  viability, T/C: 62.7%
[12]
  viability, T/C: 24.5%
[13]
  viability, T/C: 63.4%
[14]
  viability, T/C: 99.4%
[15]
  viability, T/C: 70.5%
[16]
  viability, T/C: 87.9%
[17]
  viability, T/C: 51.8%
[18]
  viability, T/C: 25.2%
[19]
  viability, T/C: 67.8%
[20]
  viability, T/C: 65.3%
[21]
  viability, T/C: 82%
[22]
  viability, T/C: 45.2%
[23]
  viability, T/C: 55.4%
[24]
  viability, T/C: 20%
[25]
  viability, T/C: 45.2%
[26]
  viability, T/C: 30.1%
[27]
  viability, T/C: 35.5%
[28]
  viability, T/C: 36.4%
[29]
  viability, T/C: 13.6%
[30]
  viability, T/C: 10.9%
[31]
  viability, T/C: 19.8%
[32]
  viability, T/C: 21.9%
[33]
  viability, T/C: 27.1%
[34]
  viability, T/C: 18.7%
[35]
  viability, T/C: 13.2%
[36]
  viability, T/C: 8.61%

## C=CC(=O)N1CCN(c2nc(=O)n(-c3c(C)ccnc3C(C)C)c3nc(-c4c(O)cccc4F)c(F)cc23)C(C)C1 (stereo unspecified) + Cc1cnc(CNC(=O)c2c(=O)c3ccc(N4CCCN(C)CC4)nc3n3c2sc2ccccc23)cn1
Second compound 0.0316 µM
  IC50: > 10 µM
Second compound 0.1 µM
  IC50: > 10 µM
Second compound 0.316 µM
  IC50: > 10 µM
Second compound 1 µM
  IC50: < 0.0316 µM
Second compound 3.16 µM
  IC50: < 0.0316 µM
Second compound 10 µM
  IC50: < 0.0316 µM
[1]
  viability, T/C: 76.1%
[2]
  viability, T/C: 59.5%
[3]
  viability, T/C: 86.8%
[4]
  viability, T/C: 68.1%
[5]
  viability, T/C: 98.3%
[6]
  viability, T/C: 67.4%
[7]
  viability, T/C: 47.9%
[8]
  viability, T/C: 63.3%
[9]
  viability, T/C: 56.6%
[10]
  viability, T/C: 63.3%
[11]
  viability, T/C: 63.8%
[12]
  viability, T/C: 65.7%
[13]
  viability, T/C: 56.4%
[14]
  viability, T/C: 59.3%
[15]
  viability, T/C: 60%
[16]
  viability, T/C: 52%
[17]
  viability, T/C: 71.1%
[18]
  viability, T/C: 65.1%
[19]
  viability, T/C: 37.4%
[20]
  viability, T/C: 39.1%
[21]
  viability, T/C: 48%
[22]
  viability, T/C: 47.5%
[23]
  viability, T/C: 48.8%
[24]
  viability, T/C: 47.9%
[25]
  viability, T/C: 19.2%
[26]
  viability, T/C: 21.6%
[27]
  viability, T/C: 24.2%
[28]
  viability, T/C: 29.7%
[29]
  viability, T/C: 23.5%
[30]
  viability, T/C: 14.3%
[31]
  viability, T/C: 0.21%
[32]
  viability, T/C: 0.22%
[33]
  viability, T/C: 0.17%
[34]
  viability, T/C: 0.25%
[35]
  viability, T/C: 0.22%
[36]
  viability, T/C: 0.16%
